Test results: BigSolDB 2.1

Nc1ccc(C(=O)[O-])cc1.[K+]
Details	solubility (mole fraction)
in DMF, 283.15 K	0.00143
in DMF, 293.15 K	0.00146
in DMF, 303.15 K	0.00153
in DMF, 313.15 K	0.00154
in DMF, 323.15 K	0.00159
in DMF, 333.15 K	0.00161
in ethanol, 283.15 K	0.00224
in ethanol, 293.15 K	0.00232
in ethanol, 303.15 K	0.00238
in ethanol, 313.15 K	0.00244
in ethanol, 323.15 K	0.0025
in ethanol, 333.15 K	0.00252
in ethyl acetate, 283.15 K	0.000198
in ethyl acetate, 293.15 K	0.000205
in ethyl acetate, 303.15 K	0.000211
in ethyl acetate, 313.15 K	0.000216
in ethyl acetate, 323.15 K	0.000219
in ethylene glycol, 283.15 K	0.0973
in ethylene glycol, 293.15 K	0.115
in ethylene glycol, 303.15 K	0.127
in ethylene glycol, 313.15 K	0.145
in ethylene glycol, 323.15 K	0.156
in ethylene glycol, 333.15 K	0.172
in formamide, 283.15 K	0.0794
in formamide, 293.15 K	0.0929
in formamide, 303.15 K	0.104
in formamide, 313.15 K	0.112
in formamide, 323.15 K	0.119
in formamide, 333.15 K	0.125
in isopropanol, 283.15 K	0.000366
in isopropanol, 293.15 K	0.000416
in isopropanol, 303.15 K	0.000486
in isopropanol, 313.15 K	0.000496
in isopropanol, 323.15 K	0.00052
in isopropanol, 333.15 K	0.000556
in n-propanol, 283.15 K	0.000852
in n-propanol, 293.15 K	0.000874
in n-propanol, 303.15 K	0.000884
in n-propanol, 313.15 K	0.000929
in n-propanol, 323.15 K	0.000952
in n-propanol, 333.15 K	0.000981
in water, 278.15 K	0.092
in water, 288.15 K	0.11
in water, 298.15 K	0.125
in water, 308.15 K	0.144
in water, 318.15 K	0.161
in water, 328.15 K	0.177
in water, 338.15 K	0.194
